Tests used:
Settings in all cases: 48 h
NOMO1 [1] = assay: cell viability relative to DMSO control; higher = less cytotoxic
In short: (§1)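 Three leukemia lines were tested: NOMO1 and SEM at 500 cells/well and P12-Ichikawa at 1000 cells/well. Each was adapted for at least four passages in each medium and seeded in 5 μl in 1536-well plates, and library compounds in DMSO were pin-dosed from 47 μM to 0.79 nM in 11 threefold steps. After 48 h at 37°C, CellTiter-Glo One luminescence was read. Viability is a percentage relative to DMSO wells on each plate, with cell-free wells as background.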

P12-Ichikawa [2] = assay: as above
In short: as §1

SEM cells [3] = assay: as above
In short: as §1

NOMO1 [4] = assay: AUC of viability dose-response curve (% viability x log10 dose units); higher = less sensitive
In short: (§2)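 Leukemia cells adapted to each medium (500 or 1000 cells/well, 1536-well plates) were exposed to library compounds in DMSO for 48 h at 37°C at 11 threefold doses, 47 μM to 0.79 nM. Luminescence by CellTiter-Glo One was normalised per plate to DMSO and cell-free wells, then fitted with a four-parameter log-logistic curve on log10 dose. Curves above full viability were scaled and quality-control failures removed before area under the curve was integrated by trapezoidal rule.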

P12-Ichikawa [5] = assay: as above
In short: as §2

SEM cells [6] = assay: as above
In short: as §2

CCOc1cc(CC(=O)N[C@@H](CC(C)C)c2ccccc2N2CCCCC2)ccc1C(=O)O
cell viability [%]
Settings | NOMO1 [1] | P12-Ichikawa [2] | SEM cells [3]
HPLM + 10% dialyzed FBS, 0.000781 µM | 117 | 113 | 83.9
HPLM + 10% dialyzed FBS, 0.00234 µM | 120 | 124 | 104
HPLM + 10% dialyzed FBS, 0.00702 µM | 139 | 116 | 121
HPLM + 10% dialyzed FBS, 0.0211 µM | 138 | 129 | 106
HPLM + 10% dialyzed FBS, 0.0632 µM | 141 | 130 | 116
HPLM + 10% dialyzed FBS, 0.19 µM | 126 | 125 | 109
HPLM + 10% dialyzed FBS, 0.569 µM | 46.7 | 129 | 122
HPLM + 10% dialyzed FBS, 1.71 µM | 43.4 | 111 | 117
HPLM + 10% dialyzed FBS, 5.12 µM | 37 | 12.2 | 132
HPLM + 10% dialyzed FBS, 15.4 µM | 41.1 | 13.3 | 125
HPLM + 10% dialyzed FBS, 46.1 µM | 34.7 | 13.4 | 119
RPMI 5 mM glucose + 10% FBS, 0.000781 µM | – | 110 | 103
RPMI 5 mM glucose + 10% FBS, 0.00234 µM | – | 130 | 110
RPMI 5 mM glucose + 10% FBS, 0.00702 µM | – | 119 | 109
RPMI 5 mM glucose + 10% FBS, 0.0211 µM | – | 137 | 109
RPMI 5 mM glucose + 10% FBS, 0.0632 µM | – | 124 | 106
RPMI 5 mM glucose + 10% FBS, 0.19 µM | – | 127 | 108
RPMI 5 mM glucose + 10% FBS, 0.569 µM | – | 135 | 118
RPMI 5 mM glucose + 10% FBS, 1.71 µM | – | 120 | 134
RPMI 5 mM glucose + 10% FBS, 5.12 µM | – | 16.4 | 127
RPMI 5 mM glucose + 10% FBS, 15.4 µM | – | 17.6 | 129
RPMI 5 mM glucose + 10% FBS, 46.1 µM | – | 19.6 | 123
RPMI 5 mM glucose + 10% dialyzed FBS, 0.000781 µM | – | – | 105
RPMI 5 mM glucose + 10% dialyzed FBS, 0.00234 µM | – | – | 113
RPMI 5 mM glucose + 10% dialyzed FBS, 0.00702 µM | – | – | 123
RPMI 5 mM glucose + 10% dialyzed FBS, 0.0211 µM | – | – | 127
RPMI 5 mM glucose + 10% dialyzed FBS, 0.0632 µM | – | – | 109
RPMI 5 mM glucose + 10% dialyzed FBS, 0.19 µM | – | – | 114
RPMI 5 mM glucose + 10% dialyzed FBS, 0.569 µM | – | – | 119
RPMI 5 mM glucose + 10% dialyzed FBS, 1.71 µM | – | – | 137
RPMI 5 mM glucose + 10% dialyzed FBS, 5.12 µM | – | – | 130
RPMI 5 mM glucose + 10% dialyzed FBS, 15.4 µM | – | – | 128
RPMI 5 mM glucose + 10% dialyzed FBS, 46.1 µM | – | – | 134

AUC of viability dose-response curve
Settings | NOMO1 [4] | P12-Ichikawa [5] | SEM cells [6]
HPLM + 10% dialyzed FBS | 327 | 365 | 459
RPMI 5 mM glucose + 10% FBS | 310 | 373 | 432
RPMI 5 mM glucose + 10% dialyzed FBS | 337 | 387 | 436

CC[C@]1(O)C[C@@H]2CN(CCc3c([nH]c4ccccc34)[C@@](C(=O)OC)(c3cc4c(cc3OC)N(C)[C@H]3[C@@](O)(C(N)=O)[C@H](O)[C@]5(CC)C=CCN6CC[C@]43[C@@H]65)C2)C1
cell viability [%]
Settings | NOMO1 [1] | P12-Ichikawa [2] | SEM cells [3]
HPLM + 10% dialyzed FBS, 0.000781 µM | – | 112 | 123
HPLM + 10% dialyzed FBS, 0.00234 µM | – | 109 | 110
HPLM + 10% dialyzed FBS, 0.00702 µM | – | 112 | 114
HPLM + 10% dialyzed FBS, 0.0211 µM | – | 97.5 | 106
HPLM + 10% dialyzed FBS, 0.0632 µM | – | 78.4 | 89.2
HPLM + 10% dialyzed FBS, 0.19 µM | – | 18.3 | 43.2
HPLM + 10% dialyzed FBS, 0.569 µM | – | 20.5 | 26.3
HPLM + 10% dialyzed FBS, 1.71 µM | – | 14.2 | 20.5
HPLM + 10% dialyzed FBS, 5.12 µM | – | 7.56 | 20
HPLM + 10% dialyzed FBS, 15.4 µM | – | 7.86 | 15.7
HPLM + 10% dialyzed FBS, 46.1 µM | – | 9.96 | 6.67
RPMI 5 mM glucose + 10% FBS, 0.000781 µM | 110 | 109 | –
RPMI 5 mM glucose + 10% FBS, 0.00234 µM | 113 | 115 | –
RPMI 5 mM glucose + 10% FBS, 0.00702 µM | 132 | 115 | –
RPMI 5 mM glucose + 10% FBS, 0.0211 µM | 103 | 98.6 | –
RPMI 5 mM glucose + 10% FBS, 0.0632 µM | 96.4 | 65.8 | –
RPMI 5 mM glucose + 10% FBS, 0.19 µM | 25.3 | 16.7 | –
RPMI 5 mM glucose + 10% FBS, 0.569 µM | 21.1 | 22.7 | –
RPMI 5 mM glucose + 10% FBS, 1.71 µM | 25.8 | 14 | –
RPMI 5 mM glucose + 10% FBS, 5.12 µM | 21.4 | 8.37 | –
RPMI 5 mM glucose + 10% FBS, 15.4 µM | 22.8 | 6.73 | –
RPMI 5 mM glucose + 10% FBS, 46.1 µM | 21 | 6.12 | –
RPMI 5 mM glucose + 10% dialyzed FBS, 0.000781 µM | 116 | 111 | 118
RPMI 5 mM glucose + 10% dialyzed FBS, 0.00234 µM | 114 | 103 | 104
RPMI 5 mM glucose + 10% dialyzed FBS, 0.00702 µM | 106 | 106 | 124
RPMI 5 mM glucose + 10% dialyzed FBS, 0.0211 µM | 122 | 104 | 124
RPMI 5 mM glucose + 10% dialyzed FBS, 0.0632 µM | 121 | 101 | 97.8
RPMI 5 mM glucose + 10% dialyzed FBS, 0.19 µM | 44.6 | 34.3 | 44.8
RPMI 5 mM glucose + 10% dialyzed FBS, 0.569 µM | 24.6 | 22.8 | 26.6
RPMI 5 mM glucose + 10% dialyzed FBS, 1.71 µM | 28.2 | 29.1 | 24.3
RPMI 5 mM glucose + 10% dialyzed FBS, 5.12 µM | 24.2 | 13.8 | 20.4
RPMI 5 mM glucose + 10% dialyzed FBS, 15.4 µM | 23.6 | 10.1 | 16.3
RPMI 5 mM glucose + 10% dialyzed FBS, 46.1 µM | 20.7 | 11.5 | 5.01

AUC of viability dose-response curve
Settings | NOMO1 [4] | P12-Ichikawa [5] | SEM cells [6]
HPLM + 10% dialyzed FBS | 223 | 231 | 250
RPMI 5 mM glucose + 10% FBS | 259 | 218 | 217
RPMI 5 mM glucose + 10% dialyzed FBS | 278 | 263 | 258

NC(=O)OCC(COC(N)=O)c1ccccc1
cell viability [%]
Settings | HPLM + 10% dialyzed FBS | RPMI 5 mM glucose + 10% FBS | RPMI 5 mM glucose + 10% dialyzed FBS
P12-Ichikawa [2], 0.000781 µM | – | 118 | –
P12-Ichikawa [2], 0.00234 µM | – | 123 | –
P12-Ichikawa [2], 0.00702 µM | – | 120 | –
P12-Ichikawa [2], 0.0211 µM | – | 118 | –
P12-Ichikawa [2], 0.0632 µM | – | 126 | –
P12-Ichikawa [2], 0.19 µM | – | 113 | –
P12-Ichikawa [2], 0.569 µM | – | 136 | –
P12-Ichikawa [2], 1.71 µM | – | 115 | –
P12-Ichikawa [2], 5.12 µM | – | 116 | –
P12-Ichikawa [2], 15.4 µM | – | 113 | –
P12-Ichikawa [2], 46.1 µM | – | 108 | –
SEM cells [3], 0.000781 µM | 91 | 119 | 99.7
SEM cells [3], 0.00234 µM | 99.6 | 121 | 107
SEM cells [3], 0.00702 µM | 102 | 104 | 99.4
SEM cells [3], 0.0211 µM | 87.3 | 119 | 115
SEM cells [3], 0.0632 µM | 101 | 113 | 111
SEM cells [3], 0.19 µM | 86.1 | 113 | 99.9
SEM cells [3], 0.569 µM | 103 | 102 | 109
SEM cells [3], 1.71 µM | 104 | 115 | 99
SEM cells [3], 5.12 µM | 92.8 | 99.8 | 97.9
SEM cells [3], 15.4 µM | 91 | 117 | 101
SEM cells [3], 46.1 µM | 90.6 | 105 | 105

AUC of viability dose-response curve
Settings | NOMO1 [4] | P12-Ichikawa [5] | SEM cells [6]
HPLM + 10% dialyzed FBS | 434 | 465 | 455
RPMI 5 mM glucose + 10% FBS | 465 | 460 | 448
RPMI 5 mM glucose + 10% dialyzed FBS | 456 | 465 | 471

O=C(O)CC/C=C\CC[C@@H]1[C@@H](N2CCCCC2)[C@@H](O)C[C@@H]1OCc1ccc(-c2ccccc2)cc1
cell viability [%], HPLM + 10% dialyzed FBS
Settings | P12-Ichikawa [2] | SEM cells [3]
0.000781 µM | 124 | 117
0.00234 µM | 131 | 131
0.00702 µM | 125 | 117
0.0211 µM | 126 | 136
0.0632 µM | 116 | 129
0.19 µM | 119 | 123
0.569 µM | 131 | 127
1.71 µM | 129 | 117
5.12 µM | 107 | 111
15.4 µM | 108 | 114
46.1 µM | 109 | 112

AUC of viability dose-response curve
Settings | NOMO1 [4] | P12-Ichikawa [5] | SEM cells [6]
HPLM + 10% dialyzed FBS | 433 | 461 | 461
RPMI 5 mM glucose + 10% FBS | 441 | 457 | 456
RPMI 5 mM glucose + 10% dialyzed FBS | 457 | 455 | 467

— the supplement of paper PMC11451515
